Results as given in US9522194B2, “Methods of using monomethylvaline compositions having phenylalanine carboxy modifications at the C-terminus” (priority 2005, dated 2016).
Non-standard residues stand in square brackets, D forms with d. Residues, ends and D or L forms follow the SMILES beside them. ξ: configuration not given here. *: point of attachment. Dolaproine = CO[C@@H]([C@@H]1CCCN1)[C@@H](C)C(=O)O; Dil = CC[C@H](C)[C@H](NC)[C@@H](CC(=O)O)OC; X1 = c1ccc(C[C@H](N*)c2nn[nH]n2)cc1; X2 = C[C@@H](N*)[C@@H](O)c1ccccc1; NMeV = CN[C@H](C(=O)O)C(C)C; ξNMeV = CNC(C(=O)O)C(C)C

Key:
[1] = tested on: CD30+ Karpas 299 cell line; experiment: In vitro efficacy of antibody drug conjugates, 96 hours incubation; assay type: cell-based, human; conditions: cAC10 (chimeric anti-CD30) conjugate of the named linker-drug, 4 drugs per antibody
Description: (§1) To evaluate the cytotoxicity of Exemplary Conjugates, cells are seeded at approximately 5-10,000 per well in 150 μl of culture medium then treated with graded doses of Exemplary Conjugates in quadruplicates at the initiation of assay. Cytotoxicity assays are carried out for 96 hours after addition of test compounds. Fifty μl of the resazurin dye is added to each well during the last 4 to 6 hours of the incubation to assess viable cells at the end of culture. Dye reduction is determined by fluorescence spectrometry using the excitation and emission wavelengths of 535 nm and 590 nm, respectively. For analysis, the extent of resazurin reduction by the treated cells is compared to that of the untreated control cells.
(§2) IC50 values are defined as the concentration where growth is reduced 50% compared with untreated control cultures. Each concentration is tested in quadruplicate. The conjugates contain 4 drugs per antibody.

[2] = tested on: CD70+ 786-O renal cell carcinoma cell line; experiment: as above; assay type: cell-based
[3] = tested on: CD70+ Caki-1 renal cell carcinoma cell line; experiment: as above; assay type: cell-based
[4] = tested on: CD30+ L540cy cell line; experiment: as above; assay type: cell-based; conditions: cAC10 (chimeric anti-CD30) conjugate of the named linker-drug, 4 drugs per antibody
Description: as §1, §2

[5] = tested on: L428 cell line (CD70+, CD30+); experiment: as above; assay type: cell-based
[6] = tested on: breast carcinoma cell line H3396; experiment: In vitro activity of free drugs; assay type: cell-based; conditions: free drug
Description: The cytotoxic activity of MMAZ and other compounds is evaluated on the Lewis Y positive cell lines OVCAR-3, H3396 breast carcinoma, L2987 lung carcinoma and LS174t colon carcinoma Lewis Y positive cell lines can be assayed for cytotoxicity. To evaluate the cytotoxicity of compounds, cells can be seeded at approximately 5-10,000 per well in 150 μl of culture medium then treated with graded doses of compounds in quadruplicates at the initiation of assay. Cytotoxicity assays are usually carried out for 96 hours after addition of test compounds. Fifty μl of resazurin dye may be added to each well during the last 4 to 6 hours of the incubation to assess viable cells at the end of culture. Dye reduction can be determined by fluorescence spectrometry using the excitation and emission wavelengths of 535 nm and 590 nm, respectively. For analysis, the extent of resazurin reduction by the treated cells can be compared to that of the untreated control cells.

[7] = tested on: Hodgkin's disease cell line L540cy; experiment: In vitro cytotoxicity of free drugs (resazurin, 96 h); assay type: cell-based; conditions: free drug, read-out: IC50s (nM) L540cy
[8] = tested on: renal cell carcinoma cell line Caki-1; experiment: as above; assay type: cell-based; conditions: free drug, read-out: IC50s (nM) Caki-1
[9] = tested on: Hodgkin's disease cell line L428; experiment: as above; assay type: cell-based; conditions: free drug, read-out: IC50s (nM) L428
[10] = tested on: colon carcinoma cell line HCT-116; experiment: as above; assay type: cell-based; conditions: free drug, read-out: IC50s (nM) HCT-116
[11] = tested on: renal cell carcinoma cell line 786-O; experiment: as above; assay type: cell-based; conditions: free drug, read-out: IC50s (nM) 786-O
[12] = tested on: anaplastic large cell lymphoma cell line Karpas 299; experiment: as above; assay type: cell-based, human; conditions: free drug, read-out: IC50s (nM) Karpas 299

## MaleimidocaproylNMeValValDilDapphosphonoPhe [mc-MMApF-B]
[1]
  IC50 of cAC10 ADCs (ng/mL) Karpas 299: >5000 ng/mL
[2]
  IC50 of c1F6 ADCs (ng/mL) 786-O: >1000 ng/mL
[3]
  IC50 of c1F6 ADCs (ng/mL) Caki-1: >1000 ng/mL
[4]
  IC50 of cAC10 ADCs (ng/mL) L540cy: >5000 ng/mL
[5]
  IC50 of cAC10 ADCs (ng/mL) L428: >5000 ng/mL

## CC[C@H](C)[C@@H]([C@@H](CC(=O)N1CCC[C@H]1[C@H](OC)[C@@H](C)C(=O)N[C@@H](Cc1ccccc1)c1nn[nH]n1)OC)N(C)C(=O)[C@@H](NC(=O)C(NC)C(C)C)C(C)C (some centres unmarked) [Drug 1003] (H-[ξNMeV]V[Dil][Dolaproine]-X1)
[6]; Homo sapiens
  IC50: 6 nM

## MaleimidocaproylValCitp-aminobenzoyl-NMeValValDil-DapphosphonoPhe [mc-vc-PAB-MMApF]
[2]
  IC50 of c1F6 ADCs (ng/mL) 786-O: >1000 ng/mL
[3]
  IC50 of c1F6 ADCs (ng/mL) Caki-1: 29.5 ng/mL

## MaleimidocaproylNMeValValDilDapphosphonoPhe [mc-MMApF-A]
[1]
  IC50 of cAC10 ADCs (ng/mL) Karpas 299: 10.9 ng/mL
[2]
  IC50 of c1F6 ADCs (ng/mL) 786-O: 3.5 ng/mL
[3]
  IC50 of c1F6 ADCs (ng/mL) Caki-1: 8.9 ng/mL
[4]
  IC50 of cAC10 ADCs (ng/mL) L540cy: 2.7 ng/mL
[5]
  IC50 of cAC10 ADCs (ng/mL) L428: 0.423 ng/mL

## CC[C@H](C)[C@@H]([C@@H](CC(=O)N1CCC[C@H]1[C@H](OC)[C@@H](C)C(=O)N[C@@H](Cc1ccccc1)C(=O)O)OC)N(C)C(=O)[C@@H](NC(=O)[C@@H](NC)C(C)C)C(C)C [MMAF, N-methylvaline-valine-dolaisoleuine-dolaproine-phenylalanine] (H-[NMeV]V[Dil][Dolaproine]F-OH)
[7]
  IC50: 130 nM
[8]
  IC50: 234 nM
[9]
  IC50: 58 nM
[10]
  IC50: 310 nM
[11]
  IC50: 380 nM
[6]
  IC50: 15 nM
[12]
  IC50: 240 nM

## mc-MMAF
[1]
  IC50 of cAC10 ADCs (ng/mL) Karpas 299: 7.6 ng/mL
[2]
  IC50 of c1F6 ADCs (ng/mL) 786-O: 135 ng/mL
[3]
  IC50 of c1F6 ADCs (ng/mL) Caki-1: 47.3 ng/mL
[4]
  IC50 of cAC10 ADCs (ng/mL) L540cy: 3.4 ng/mL
[5]
  IC50 of cAC10 ADCs (ng/mL) L428: 1.3 ng/mL

## CO[C@@]12[C@H](COC(N)=O)C3=C(C(=O)C(C)=C(N)C3=O)N1C[C@@H]1N[C@@H]12 [Mitomycin C]
[7]
  IC50: 134 nM
[8]
  IC50: 14.5 nM
[9]
  IC50: 187 nM
[10]
  IC50: 166 nM
[11]
  IC50: 32.3 nM
[12]
  IC50: 105 nM

## CC[C@H](C)[C@@H]([C@@H](CC(=O)N1CCC[C@H]1[C@H](OC)[C@@H](C)C(=O)N[C@H](C)[C@@H](O)c1ccccc1)OC)N(C)C(=O)[C@@H](NC(=O)[C@@H](NC)C(C)C)C(C)C [MMAE] (H-[NMeV]V[Dil][Dolaproine]-X2)
[6]
  IC50: 0.7 nM
